≈ marks a conversion by molar mass, not a printed value.
Assays:
[1] = system: Fonsecaea pedrosoi (CFP 00791); test: Urease production in Christensen urea broth (OD 559 nm); assay type: cell-based; settings: F. pedrosoi; ½ MIC albendazole; 7 and 12 days, 37 °C
Experimental: (§1) To verify urease production, three strains: Fonsecaea pedrosoi (CFP 00791) Cladophialophora carrionii (CFP 00910), and Exophiala heteromorpha (ATCC® 28180), corresponding to the three major chromoblastomycosis agents worldwide, were cultured on PDA for seven days and further cultured in Christensen urea broth in the presence and absence of albendazole at a ½ MIC concentration. Candida albicans and Cryptococcus neoformans were used as negative and positive controls of the culture medium, respectively. In brief, fungal suspensions were adjusted to a concentration of 10^6 cells/mL and used for inoculation. A volume of 500 μL of these suspensions were inoculated into 4.5 mL of Christensen urea broth and the tubes were then incubated under agitation (150 rpm) at 37 °C. At the end of seven and 12 days of incubation, the tubes were centrifuged, and a volume of 100 μL of the supernatant was transferred to a 96-well plate; this procedure was performed in triplicate. The absorbances of the samples were read on a SpectraMax plus 384 spectrophotometer (Molecular Devices, San José, CA, USA) at 559 nm, as previously described by Almeida-Paes et al.. Results were analyzed statistically using the two-way ANOVA test with multiple comparisons. p values lower than 0.05 were considered significant.

[2] = system: Exophiala heteromorpha (ATCC 28180); test: as above; assay type: cell-based; settings: E. heteromorpha; ½ MIC albendazole; 7 and 12 days, 37 °C
Experimental: as §1

[3] = system: Exophiala heteromorpha (ATCC 28180); settings: E. heteromorpha; PDA; 7 days, 37 °C; albendazole at ½ MIC
Experimental: At the end of the seven days of incubation at 37 °C, the plates were read visually. The aspect of the colonies supplemented with albendazole were compared to those of the positive melanin and inhibition melanin controls, to determine whether the color of the albendazole-supplemented cultures resembled the positive DHN-melanin or the melanin inhibition control. Pictures of the colonies were captured using a Canon EOS Rebel T7+ digital camera.

CBM agents = test: Chequerboard synergism assay, stated over all tested isolates; assay type: cell-based
Experimental: To assess the type of interaction between the hit drugs and the antifungal drugs most used in the treatment of CBM (itraconazole and terbinafine), the fractional inhibitory concentration index (FICI) was determined, which defines the type of interaction between drugs in combination as follows: synergism if FICI ≤ 0.5; indifference if 0.5 < FICI ≤ 4; and antagonism if FICI > 4 [39]. The FICI was obtained by the sum of the fractional inhibitory concentrations (FIC) or by the formula: (A/MIC(a) = FIC_A) + (B/MIC(b) = FIC_B) = FICI, where: A = MIC of the drug (a) in combination; MIC (a) = MIC of drug (a) alone; B = MIC of drug (b) in combination; and MIC (b) = MIC of drug (b) alone. The test was carried out using the chequerboard method, in which the two drugs were applied in a single well of a 96-well plate, so that in each of the wells there were different concentrations of the combinations between the substance and the antifungal agent (Figure S1). Drug dilutions were prepared following the methodology proposed by EUCAST, starting from a stock solution of the hit drug or antifungal drug 100× concentrated, according to the methodology described to determine the MIC [36]. Hit drug A/antifungal drug B serial microdilution preparations were performed following the above mentioned protocol, observing the final concentration in the wells after the addition of drugs and inoculum. […]

[4] = system: Cladophialophora carrionii (CFP 00910); test: Chequerboard synergism assay (FICI); assay type: cell-based; settings: C. carrionii
Experimental: (§2) To assess the type of interaction between the hit drugs and the antifungal drugs most used in the treatment of CBM (itraconazole and terbinafine), the fractional inhibitory concentration index (FICI) was determined, which defines the type of interaction between drugs in combination as follows: synergism if FICI ≤ 0.5; indifference if 0.5 < FICI ≤ 4; and antagonism if FICI > 4 [39]. The FICI was obtained by the sum of the fractional inhibitory concentrations (FIC) or by the formula: (A/MIC(a) = FIC_A) + (B/MIC(b) = FIC_B) = FICI, where: A = MIC of the drug (a) in combination; MIC (a) = MIC of drug (a) alone; B = MIC of drug (b) in combination; and MIC (b) = MIC of drug (b) alone. The test was carried out using the chequerboard method, in which the two drugs were applied in a single well of a 96-well plate, so that in each of the wells there were different concentrations of the combinations between the substance and the antifungal agent (Figure S1). Drug dilutions were prepared following the methodology proposed by EUCAST, starting from a stock solution of the hit drug or antifungal drug 100× concentrated, according to the methodology described to determine the MIC [36]. Hit drug A/antifungal drug B serial microdilution preparations were performed following the above mentioned protocol, observing the final concentration in the wells after the addition of drugs and inoculum. […] Column 12 was reserved for drug B (itraconazole or terbinafine) susceptibility testing. Row H was reserved for the selected NCC substance. The other combined drug and substance concentrations were distributed between columns 2 and 11 in rows A to G. Drug concentrations ranged from 0.062 μM to 4 µM for itraconazole and terbinafine, and from 0.125 μM to 64 µM for the hit drug on the combination boards.

[5] = system: Phialophora verrucosa (CFP 00937); test: Chequerboard synergism assay (FICI); assay type: cell-based; settings: P. verrucosa
Experimental: as §2

[6] = system: Fonsecaea nubica (CFP 00912); test: Chequerboard synergism assay (FICI); assay type: cell-based; settings: F. nubica
Experimental: as §2

[7] = system: Exophiala dermatitidis (ATCC 28869); test: Chequerboard synergism assay (FICI); assay type: cell-based; settings: E. dermatitidis
Experimental: as §2

[8] = system: Rhinocladiela similis (CFP 00790); test: Chequerboard synergism assay (FICI); assay type: cell-based; settings: R. similis
Experimental: as §2

[9] = system: Fonsecaea monophora (CFP 00911); test: Chequerboard synergism assay (FICI); assay type: cell-based; settings: F. monophora
Experimental: as §2

[10] = system: Fonsecaea pedrosoi (CFP 00791); test: Chequerboard synergism assay (FICI); assay type: cell-based; settings: F. pedrosoi
Experimental: as §2

[11] = system: Exophiala heteromorpha (ATCC 28180); test: Chequerboard synergism assay (FICI); assay type: cell-based; settings: E. heteromorpha
Experimental: as §2

[12] = system: Phialophora verrucosa (CFP 00937); test: Minimum fungicidal concentration determination; assay type: cell-based
Experimental: (§3) Minimum fungicidal concentration (MFC) was determined in triplicate by transferring a 5 μL aliquot from each well without fungal growth of the microdilution plates used for MIC determination, as described above, onto 2% glucose Sabouraud agar (Sigma Chemical Corporation). The MFC was determined as the lowest drug concentration without fungal growth on Sabouraud agar after five days of incubation at 35 °C. When the MFC/MIC ratio of a hit drug was 1 or 2, the substance was considered fungicidal against the pathogen. If this ratio was greater than 2, the hit drug was considered to be fungistatic.

[13] = system: Fonsecaea nubica (CFP 00912); test: Minimum fungicidal concentration determination; assay type: cell-based
Experimental: as §3

[14] = system: Exophiala dermatitidis (ATCC 28869); test: Minimum fungicidal concentration determination; assay type: cell-based
Experimental: as §3

[15] = system: Rhinocladiela similis (CFP 00790); test: Minimum fungicidal concentration determination; assay type: cell-based
Experimental: as §3

[16] = system: Fonsecaea monophora (CFP 00911); test: Minimum fungicidal concentration determination; assay type: cell-based
Experimental: as §3

[17] = system: Fonsecaea pedrosoi (CFP 00791); test: Minimum fungicidal concentration determination; assay type: cell-based
Experimental: as §3

[18] = system: Exophiala heteromorpha (ATCC 28180); test: Minimum fungicidal concentration determination; assay type: cell-based
Experimental: as §3

SMILES: CCCSc1ccc2nc(NC(=O)OC)[nH]c2c1 [Albendazole]
- urease secretion [1]: increased secretion of urease
- urease secretion [2]: decrease in urease secretion
- melanin production [3]: did not observe a decrease in melanin production
- type of interaction, albendazole with itraconazole (CBM agents): indifferent
- type of interaction, albendazole with terbinafine (CBM agents): indifferent
- FICI Albendazole + Itraconazole ([4]; combination with itraconazole): 1.06
- FICI Albendazole + Terbinafine ([4]; combination with terbinafine): 1.06
- FICI Albendazole + Itraconazole ([5]; combination with itraconazole): 1.125
- FICI Albendazole + Terbinafine ([5]; combination with terbinafine): 2.12
- FICI Albendazole + Itraconazole ([6]; combination with itraconazole): 1.25
- FICI Albendazole + Terbinafine ([6]; combination with terbinafine): 1.12
- FICI Albendazole + Itraconazole ([7]; combination with itraconazole): 1.06
- FICI Albendazole + Terbinafine ([7]; combination with terbinafine): 1.06
- FICI Albendazole + Itraconazole ([8]; combination with itraconazole): 0.62
- FICI Albendazole + Terbinafine ([8]; combination with terbinafine): 2
- FICI Albendazole + Itraconazole ([9]; combination with itraconazole): 1.50
- FICI Albendazole + Terbinafine ([9]; combination with terbinafine): 1.12
- FICI Albendazole + Itraconazole ([10]; combination with itraconazole): 1
- FICI Albendazole + Terbinafine ([10]; combination with terbinafine): 1.12
- FICI Albendazole + Itraconazole ([11]; combination with itraconazole): 1.03
- FICI Albendazole + Terbinafine ([11]; combination with terbinafine): 1.06
- MFC:MIC Ratio ([12]; P. verrucosa): 64
- MFC ([12]; Phialophora verrucosa): 40 µM (≈ 10.6 µg/mL)
- MFC:MIC Ratio ([13]; F. nubica): 64
- MFC ([13]; Fonsecaea nubica): 40 µM (≈ 10.6 µg/mL)
- MFC:MIC Ratio ([14]; E. dermatitidis): >32
- MFC ([14]; Exophiala dermatitidis, ATCC28869): > 80 µM
- MFC [15]: > 80 µM
- MFC:MIC Ratio ([15]; R. similis): >64
- MFC:MIC Ratio ([16]; F. monophora): 1
- fungicidal or fungistatic (MFC/MIC ratio) ([16]; F. monophora): fungicidal (When the MFC/MIC ratio of a hit drug was 1 or 2, the substance was considered fungicidal)
- MFC ([16]; Fonsecaea monophora): 0.625 µM (≈ 0.166 µg/mL)
- MFC:MIC Ratio ([17]; F. pedrosoi): 1
- fungicidal or fungistatic (MFC/MIC ratio) ([17]; F. pedrosoi): fungicidal (When the MFC/MIC ratio of a hit drug was 1 or 2, the substance was considered fungicidal)
- MFC ([17]; Fonsecaea pedrosoi): 1.25 µM (≈ 0.332 µg/mL)
- MFC:MIC Ratio ([18]; E. heteromorpha): 32
- MFC ([18]; Exophiala heteromorpha, ATCC28180): 80 µM (≈ 21.2 µg/mL)

From PMC10381309 (Journal of Fungi, 2023)
